Results taken from US8735423B2, “Bicyclic compounds as α4β2 nicotinic acetylcholine receptor ligands” (priority 2009, dated 2014).
Counter-ions that a name gives are not always drawn. Like-named read-outs stand apart in the source and are kept apart here.

Columns and labels:
[1] = molecular target: T1, recombinant human α4β2 nicotinic acetylcholine receptor (Homo sapiens, UniProt P17787+P43681); experiment: Determination of IC50 and Kb values, aequorin luminescence assay in CHO cells; format: cell-based
T1 construct: expressed in transfected cells
Procedure: Determination of IC50 and Kb Values for Nicotinic Acetylcholine α4β2 Receptor Ligands
A stable CHO cell line expressing recombinant human α4β2 nicotinic acetylcholine receptor transiently expressing aequorin protein was used for cell-based assay. The assay offers a non-radioactive based approach to determine binding of a compound to ligand gated ion channels. In this specific assay, the level of intracellular calcium which is modulated by activation or inhibition of the channel is measured. Both the channel and aequorin genes are expressed at high level under the control of powerful CMV promotor.
The above cells were grown in 96 well clear bottom white plates in Hams F12 medium containing 10% fetal bovine serum (FBS). Prior to the addition of compounds and/or agonist, cells were serum starved for six hours. Coelentarazine (a prosthetic group for aequorin protein) was added in the medium containing 0.1% dialyzed serum and incubated overnight at 27° C. Cells were washed with assay buffer and increasing concentration of the test compound or standard were added to the plate for antagonist mode. A fixed concentration of the agonist (eipbatidine) was injected into the plate and luminescence was measured for 10 seconds. For evaluation of the compound in agonist mode, increasing concentration of the standard or test compound was injected and the luminescence was measured. Luminescence units were plotted against the compound concentrations using Graphpad software. IC50 values of the compounds were defined as the concentration required in reducing the luminescent units by 50%. The Kb values were calculated by feeding the concentration of the agonist used in the assay and its EC50 value in the same software.
Literature References: Karadsheh M. S., Shah M. S., Tang X., Macdonald R. L. and Stitzel J. A. Functional characterization of mouse α4β2 nicotinic acetylcholine receptors stably expressed in HEK293T cells. J. Neurochem. 2004, 91, 1138-1150.

[2] = molecular target: Human or Rat Nicotinic Acetylcholine α4β2 receptor (UniProt P09483+P12390); experiment: Binding assay for Human or Rat Nicotinic Acetylcholine α4β2 receptor ([3H] Cytisine); conditions: [3H] Cytisine 2.5 nM, rat brain frontal cortex or recombinant human cDNA expressed in CHO cells
Procedure: Binding assay for Human or Rat Nicotinic Acetylcholine α4β2 receptor
Compounds can be evaluated according to the following procedures.
Materials and Methods: • Receptor source: Rat brain frontal cortex or recombinant human cDNA expressed in CHO cells • Radioligand: [^3H] Cytisine 15-40 Ci/mmol • Final ligand concentration—[2.5 nM] • Non-specific determinant: Epibatidine-[0.1 μM] • Reference compound: Epibatidine • Positive control: Epibatidine Incubation Conditions:
Increasing concentrations of test compounds or standard were incubated with membrane receptors and radioligand in 120 mM NaCl, 2.5 mM KCl, 1 mM CaCl2, 1 mM MgCl2 and 50 mM TRIS-HCl (pH 7.4) for 60 minutes at room temperature. The reaction was terminated by rapid vacuum filtration onto the glass fiber filters. Radioactivity trapped onto the filters was determined and compared to the control values in order to ascertain any interactions of the test compound(s) with either cloned human or rat receptor binding site.
Literature Reference: Bunnelle W. H., Daanen J. F., Ryther K. B., Schrimpf M. R., Dart M. J., Gelain A., Meyer M. D., Frost J. M., Anderson D. J., Buckley M., Curzon P., Cao Y-J., Puttfarcken P., Searle X., Ji J., Putman C. B., Surowy C., Toma L. and Barlocco D. Structure-Activity Studies and Analgesic Efficacy of N-(3-Pyridinyl)-Bridged Bicyclic Diamines, Exceptionally Potent Agonists at Nicotinic Acetylcholine Receptors. J. Med. Chem. 2007, 50, […].

[3] = Rodent Brain Penetration Study; conditions: in vivo; Wistar rat male, P.O, 5 mg/kg; read-out: Steady State Brain Penetration (Cb/Cp)
Procedure: Rodent Brain Penetration Study
Male Wistar rats (230-280 grams) obtained from NIN (National Institute of Nutrition, Hyderabad, India) was used as an experimental animal. Three animals were housed in each cage. Animals were given water and food ad libitum throughout the experiment, and maintained on a 12 hours light/dark cycle.
NCE compound was dissolved in water and administered orally. At Tmax (0.5, 1.0 and 2.0) animals were sacrificed to collect the plasma and brain tissue and was homogenized. Plasma and Brain was stored frozen at −20° C. until analysis. The concentrations of the NCE compound in plasma and Brain were determined using LC-MS/MS method.
The NCE compounds were quantified in plasma and brain homogenate by validated LC-MS/MS method using solid phase extraction technique. NCE compounds were quantified in the calibration range of 1-500 ng/mL in plasma and brain homogenate. Study samples were analyzed using calibration samples in the batch and quality control samples spread across the batch. Extents of brain-blood ratio were calculated (Cb/Cp).

[4] = Rodent Pharmacokinetic Study; conditions: Wistar, in vivo, Wister rat male; for AUC(0-t) / Cmax / Tmax / half-life: 5 mg/kg; for bioavailability: P.O 5 mg/kg vs I.V 5 mg/kg
Procedure: Rodent Pharmacokinetic Study
Male wistar rats (230-280 grams) obtained from NIN (National Institute of Nutrition, Hyderabad, India) were used as an experimental animal. Three to five animals were housed in each cage. Animals were kept fasted over night and maintained on a 12 hours light/dark cycle. […]
At each time point blood was collected by jugular vein. Plasma was stored frozen at −20° C. until analysis. The concentrations of the NCE compound in plasma were determined using LC-MS/MS method. Schedule time points: Pre dose 0.25, 0.5, 1, 1.5, 2, 3, 4, 6, 8, 10, 12 and 24 hours after dosing (n=3). The NCE compounds were quantified in plasma by validated LC-MS/MS method using solid phase extraction technique. NCE compounds were quantified in the calibration range of 1-2000 ng/mL in plasma. Study samples were analyzed using calibration samples in the batch and quality control samples spread across the batch. Pharmacokinetic parameters Cmax, Tmax, AUCs, T112 and Bioavailability were calculated by non-compartmental model using software WinNonlin version 5.0.1.

[5] = tested on: Male Wister rats; experiment: Reversal of Formalin Induced Nociception; format: in vivo; conditions: rat, p.o., formalin 5% v/v subplantar
Procedure: Reversal of Formalin Induced Nociception
The anti-nociceptive properties of compounds of this invention were evaluated using a model of pain: the Formalin Induced Nociception model. Male Wister rats (230-280 grams) obtained from N. I. N. (National Institute of Nutrition, Hyderabad, India) was used as experimental animals.
Rats were habituated for 20 minutes in the arena before the experiment was started. Duration of licks, bites and flinches were noted from 0-10 minutes and 20-35 minutes after administration of formalin, subplantar into the right hind paw at concentrations of 5% v/v. 50 μL of water for injection was injected into the right hind paw of the rats of the sham group. Compounds of this invention were administered orally prior to formalin administration.

[6] = antagonist mode, fixed concentration of agonist epibatidine, CHO cells, luminescence, read-out: Kb

T1 sequence (P43681 29-627): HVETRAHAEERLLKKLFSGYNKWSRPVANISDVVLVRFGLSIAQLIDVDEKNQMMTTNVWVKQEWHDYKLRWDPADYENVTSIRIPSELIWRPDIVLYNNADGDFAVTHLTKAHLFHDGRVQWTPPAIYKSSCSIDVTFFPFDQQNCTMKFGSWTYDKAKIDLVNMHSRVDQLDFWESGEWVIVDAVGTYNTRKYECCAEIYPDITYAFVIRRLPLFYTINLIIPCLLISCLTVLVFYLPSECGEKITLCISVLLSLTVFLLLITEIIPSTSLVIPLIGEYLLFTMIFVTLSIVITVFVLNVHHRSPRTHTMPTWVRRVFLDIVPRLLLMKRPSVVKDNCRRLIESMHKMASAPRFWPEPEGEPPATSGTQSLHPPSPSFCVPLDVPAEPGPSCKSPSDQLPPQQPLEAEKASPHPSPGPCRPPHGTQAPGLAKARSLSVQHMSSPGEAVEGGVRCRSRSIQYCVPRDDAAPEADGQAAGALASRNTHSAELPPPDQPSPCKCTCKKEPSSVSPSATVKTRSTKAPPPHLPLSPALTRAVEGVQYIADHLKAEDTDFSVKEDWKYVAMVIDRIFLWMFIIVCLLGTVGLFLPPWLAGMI
T1 sequence (P17787 26-502): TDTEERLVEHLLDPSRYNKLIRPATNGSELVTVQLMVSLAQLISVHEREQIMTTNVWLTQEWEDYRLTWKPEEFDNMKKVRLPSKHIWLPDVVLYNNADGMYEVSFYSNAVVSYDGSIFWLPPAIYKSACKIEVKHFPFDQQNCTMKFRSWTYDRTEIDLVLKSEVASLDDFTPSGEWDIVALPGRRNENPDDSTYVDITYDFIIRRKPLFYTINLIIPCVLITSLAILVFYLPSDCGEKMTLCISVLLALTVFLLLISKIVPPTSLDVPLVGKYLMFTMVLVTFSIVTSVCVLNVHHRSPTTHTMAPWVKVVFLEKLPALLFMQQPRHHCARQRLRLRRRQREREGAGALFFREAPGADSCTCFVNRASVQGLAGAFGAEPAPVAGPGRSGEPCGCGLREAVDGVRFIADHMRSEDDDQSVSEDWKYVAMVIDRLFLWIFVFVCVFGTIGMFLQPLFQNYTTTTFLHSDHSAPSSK

**Q.** Which Kb [1] does the source give for `CN1C(COc2cncc(Cl)c2)CC2CC21` (centres unmarked) [Example 16, 3-(5-Chloropyridin-3-yloxymethyl)-2-methyl-2-azabicyclo[3.1.0]hexane] here?
**A.** Its Kb is 0.4 nM.

**Q.** What about the Ki ([2]; read-out: Ki) of the same molecule?
**A.** The Ki was 0.37 nM.

**Q.** Which Ki ([2]; read-out: Ki) does the source give for `c1cncc(OCC2CCC3CC3N2)c1` (centres unmarked) [Example 19, 3-(Pyridin-3-yloxymethyl)-2-azabicyclo[4.1.0]heptane hydrochloride] here?
**A.** Its Ki is 8.2 nM.

**Q.** For `CN1C(COc2ccc(F)nc2)CC2CC21` (centres unmarked) [Example 15, 3-(2-Fluoropyridin-5-yloxymethyl)-2-methyl-2-azabicyclo[3.1.0]hexane], which Ki ([2]; read-out: Ki) is on record?
**A.** The Ki was 1.1 nM.

**Q.** For `CN1C(COc2cccnc2F)CC2CC21` (centres unmarked) [Example 10, 3-(2-Fluoropyridin-3-yloxymethyl)-2-methyl-2-azabicyclo[3.1.0]hexane tartrate], which Ki ([2]; read-out: Ki) is on record?
**A.** The Ki was 31.9 nM.

**Q.** With `CN1C(COc2cncc(Br)c2)CC2CC21` (centres unmarked) [Example 17, 3-(5-Bromopyridin-3-yloxymethyl)-2-methyl-2-azabicyclo[3.1.0]hexane dihydrochloride] as the molecule, how does the Ki ([2]; read-out: Ki) read?
**A.** The Ki was 4.2 nM.

**Q.** Which Kb [1, 6] does the source give for `Cc1ccc(OCC2CC3CC3N2C)cn1` (centres unmarked) [Example 13, 2-Methyl-3-(2-methylpyridin-5-yloxymethyl)-2-azabicyclo[3.1.0]hexane] here?
**A.** The Kb was 5 nM.

**Q.** What about the Ki [2] of the same molecule?
**A.** The Ki was 0.3 nM.

**Q.** Which Ki ([2]; read-out: Ki) does the source give for `Fc1ncccc1OCC1CC2CC2N1` (centres unmarked) [Example 9, 3-(2-Fluoropyridin-3-yloxymethyl)-2-azabicyclo[3.1.0]hexane tartrate] here?
**A.** The Ki was 17.4 nM.

**Q.** What does the source list for `Cl.Cl.Clc1ncccc1OCC1CC2CC2N1` (centres unmarked) [Example 4, 3-(2-Chloropyridin-3-yloxymethyl)-2-azabicyclo[3.1.0]hexane dihydrochloride]?
**A.** Kp [3]: 3.6 ± 0.99; AUC(0-t) ([4]; iv, I.V): 4160 ± 878 ng·h/mL; Cmax ([4]; iv, I.V): 2600 ± 42 ng/mL; Tmax ([4]; iv, I.V): 4.8 min; half-life ([4]; iv, I.V): 93 ± 15 min; bioavailability ([4]; po): 54 ± 23%; AUC(0-t) ([4]; po, P.O): 2160 ± 658 ng·h/mL; Cmax ([4]; po, P.O): 921 ± 268 ng/mL; Tmax ([4]; po, P.O): 15 min; half-life ([4]; po, P.O): 129 ± 30.6 min; Ki ([2]; read-out: Ki): 17.5 nM

**Q.** Which Kb [1, 6] does the source give for `Cc1ccc(OCC2CC3CC3N2)cn1` (centres unmarked) [Example 18, 3-(2-Methylpyridin-5-yloxymethyl)-2-azabicyclo[3.1.0]hexane] here?
**A.** The Kb was 22 nM.

**Q.** What about the Ki [2] of the same molecule?
**A.** Its Ki is 26.1 nM.

**Q.** Which Ki ([2]; read-out: Ki) does the source give for `Cc1ncccc1OCC1CC2CC2N1` (centres unmarked) [Example 3, 3-(2-Methylpyridin-3-yl-oxymethyl)-2-azabicyclo[3.1.0]hexane dihydrochloride] here?
**A.** Its Ki is 1000 nM.

**Q.** For `Cc1ncccc1OCC1CC2CC2N1C` (centres unmarked) [Example 12, 2-Methyl-3-(2-methylpyridin-3-yloxymethyl)-2-azabicyclo[3.1.0]hexane], which Ki ([2]; read-out: Ki) is on record?
**A.** Its Ki is 231 nM.

**Q.** For `Clc1cncc(OCC2CCC3CC3N2)c1` (centres unmarked) [Example 20, 3-(5-Chloropyridin-3-yloxymethyl)-2-azabicyclo[4.1.0]heptane hydrochloride], which Ki ([2]; read-out: Ki) is on record?
**A.** Its Ki is 216 nM.

**Q.** Which Kp [3] does the source give for `Cl.Cl.Clc1ccc(OCC2CC3CC3N2)cn1` (centres unmarked) [Example 5, 3-(2-Chloropyridin-5-yloxymethyl)-2-azabicyclo[3.1.0]hexane dihydrochloride] here?
**A.** Its Kp is 2.34 ± 0.25.

**Q.** What about the AUC(0-t) ([4]; iv, I.V) of the same molecule?
**A.** The AUC(0-t) was 5380 ± 821 ng·h/mL.

**Q.** What about the Cmax ([4]; iv, I.V) of the same molecule?
**A.** The Cmax was 2720 ± 588 ng/mL.

**Q.** What about the Tmax ([4]; iv, I.V) of the same molecule?
**A.** The Tmax was 4.8 min.

**Q.** And the half-life ([4]; iv, I.V)?
**A.** The half-life was 151 ± 25.8 min.

**Q.** What about the bioavailability ([4]; po) of the same molecule?
**A.** Its bioavailability is 66 ± 12%.

**Q.** What about the AUC(0-t) ([4]; po, P.O) of the same molecule?
**A.** Its AUC(0-t) is 3510 ± 657 ng·h/mL.

**Q.** What about the Cmax ([4]; po, P.O) of the same molecule?
**A.** The Cmax was 1910 ± 675 ng/mL.

**Q.** What about the Tmax ([4]; po, P.O) of the same molecule?
**A.** Its Tmax is 15 min.

**Q.** What about the half-life ([4]; po, P.O) of the same molecule?
**A.** Its half-life is 200 ± 36 min.

**Q.** What about the Ki [2] of the same molecule?
**A.** The Ki was 1.5 nM.

**Q.** For `CN1C(COc2ccc(Cl)nc2)CC2CC21` (centres unmarked) [Example 14, 3-(2-Chloropyridin-5-yloxymethyl)-2-methyl-2-azabicyclo[3.1.0]hexane], which Ki ([2]; read-out: Ki) is on record?
**A.** Its Ki is 3.4 nM.

**Q.** Which results are given for `CN1C(COc2cccnc2)CC2CC21` (centres unmarked) [Example 2, 2-Methyl-3-(pyridin-3-yloxymethyl)-2-azabicyclo[3.1.0]hexane]?
**A.** Kb [1]: 0.4 nM; Ki ([2]; read-out: Ki): 5.5 nM

**Q.** Which “Dose (reversal of formalin induced nociception)” value [5] does the source give for `Cl.Cl.Fc1ccc(OCC2CC3CC3N2)cn1` (centres unmarked) [Example 6, 3-(2-Fluoropyridin-5-yloxymethyl)-2-azabicyclo[3.1.0]hexane dihydrochloride] here?
**A.** The value was “≦30 mg/kg, p.o”.

**Q.** And the Ki ([2]; read-out: Ki)?
**A.** The Ki was 3.9 nM.

**Q.** With `Brc1cncc(OCC2CC3CC3N2)c1` (centres unmarked) [Example 8, 3-(5-Bromopyridin-3-yloxymethyl)-2-azabicyclo[3.1.0]hexane tartrate] as the molecule, how does the Ki ([2]; read-out: Ki) read?
**A.** Its Ki is 6.4 nM.

**Q.** What does the source list for `CN1C(COc2cccnc2Cl)CC2CC21` (centres unmarked) [Example 11, 3-(2-Chloropyridin-3-yloxymethyl)-2-methyl-2-azabicyclo[3.1.0]hexane]?
**A.** Kb [1]: 13.5 nM; Ki ([2]; read-out: Ki): 28.1 nM
